Experimental data from ChEMBL document CHEMBL1201862, “PubChem BioAssay data set” (2004).
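A five-concentration, 48-hour dose response in 96-well plates underlies each endpoint, interpolated linearly between surrounding concentrations. GI50: concentration for 50% inhibition of growth.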 The source made the active and inactive calls. Rule as the data show it: active = GI50 up to about 1.1 µM and inactive = higher.

What was measured:
Assay in all cases: growth of human tumour cells (NCI), 48 h
SF-295 = system: SF-295
CAKI-1 = system: CAKI-1
U-251 = system: U-251
OVCAR-4 = system: OVCAR-4
CCRF-CEM = system: CCRF-CEM
HL-60 = system: HL-60
RXF 393 = system: RXF 393
OVCAR-3 = system: OVCAR-3
TK-10 = system: TK-10
SW-620 = system: SW-620
HT-29 = system: HT-29
SK-MEL-2 = system: SK-MEL-2
Malme-3M = system: Malme-3M
A549 = system: A549
SNB-75 = system: SNB-75

CCOC(=O)c1cc(-c2ccc(-c3cc(C(=O)OCC)c(C#N)c(N)c3C#N)cc2)c(C#N)c(N)c1C#N
GI50 (SF-295): > 100 µM (inactive)
GI50 (CAKI-1): > 100 µM (inactive)
GI50 (U-251): > 100 µM (inactive)
GI50 (OVCAR-4): > 100 µM (inactive)
GI50 (CCRF-CEM): > 100 µM (inactive)
GI50 (HL-60): > 100 µM (inactive)
GI50 (RXF 393): > 100 µM (inactive)
GI50 (OVCAR-3): > 100 µM (inactive)
GI50 (TK-10): > 100 µM (inactive)
GI50 (SW-620): > 100 µM (inactive)
GI50 (HT-29): > 100 µM (inactive)
GI50 (SK-MEL-2): > 100 µM (inactive)
GI50 (Malme-3M): > 100 µM (inactive)
GI50 (A549): > 100 µM (inactive)

CO[C@H](C(=O)O[C@H]1C(=O)N2CCC3CCC1C32C)c1ccccc1 (some centres undefined)
GI50 (SNB-75): > 100 µM (inactive)
GI50 (SF-295): > 100 µM (inactive)
GI50 (CAKI-1): > 100 µM (inactive)
GI50 (U-251): > 100 µM (inactive)
GI50 (OVCAR-4): > 100 µM (inactive)
GI50 (CCRF-CEM): > 100 µM (inactive)
GI50 (HL-60): > 100 µM (inactive)
GI50 (RXF 393): > 100 µM (inactive)
GI50 (OVCAR-3): > 100 µM (inactive)
GI50 (SW-620): > 100 µM (inactive)
GI50 (HT-29): > 100 µM (inactive)
GI50 (SK-MEL-2): > 100 µM (inactive)
GI50 (Malme-3M): > 100 µM (inactive)
GI50 (A549): > 100 µM (inactive)

COc1cc2cnc3c4cc(OCc5ccccc5)ccc4ccc3c2cc1OC
GI50 (SNB-75): 3.94 µM (inactive)
GI50 (SF-295): 15.6 µM (inactive)
GI50 (CAKI-1): 26.7 µM (inactive)
GI50 (U-251): 24.3 µM (inactive)
GI50 (OVCAR-4): 6.92 µM (inactive)
GI50 (CCRF-CEM): 2.81 µM (inactive)
GI50 (HL-60): 1.66 µM (inactive)
GI50 (RXF 393): 12 µM (inactive)
GI50 (OVCAR-3): 40.6 µM (inactive)
GI50 (TK-10): 16.1 µM (inactive)
GI50 (SW-620): 54.3 µM (inactive)
GI50 (HT-29): 25.1 µM (inactive)
GI50 (SK-MEL-2): 18.8 µM (inactive)
GI50 (Malme-3M): 36.3 µM (inactive)
GI50 (A549): 25.5 µM (inactive)

C/C(CC(=O)Nc1ccccc1[N+](=O)[O-])=N\NC(N)=O
GI50 (SNB-75): > 100 µM (inactive)
GI50 (SF-295): > 100 µM (inactive)
GI50 (U-251): > 100 µM (inactive)
GI50 (CCRF-CEM): > 100 µM (inactive)
GI50 (HL-60): > 100 µM (inactive)
GI50 (RXF 393): > 100 µM (inactive)
GI50 (OVCAR-3): > 100 µM (inactive)
GI50 (TK-10): > 100 µM (inactive)
GI50 (SW-620): > 100 µM (inactive)
GI50 (HT-29): > 100 µM (inactive)
GI50 (SK-MEL-2): > 100 µM (inactive)
GI50 (Malme-3M): > 100 µM (inactive)
GI50 (A549): > 100 µM (inactive)

OCc1c(-c2cccc3ccccc23)sc(-c2cccc3ccccc23)c1CO
GI50 (SNB-75): 14.3 µM (inactive)
GI50 (SF-295): 14.1 µM (inactive)
GI50 (U-251): 12.2 µM (inactive)
GI50 (CCRF-CEM): 6.41 µM (inactive)
GI50 (HL-60): 15.5 µM (inactive)
GI50 (OVCAR-3): 13.4 µM (inactive)
GI50 (TK-10): 13.1 µM (inactive)
GI50 (SW-620): 15.6 µM (inactive)
GI50 (HT-29): 15.3 µM (inactive)
GI50 (SK-MEL-2): 14.6 µM (inactive)
GI50 (Malme-3M): 12.2 µM (inactive)

COc1cc(C2c3cc4c(cc3C(NCC(O)CO)C3COC(=O)[C@H]23)OCO4)cc(OC)c1OC (some centres undefined)
GI50 (SNB-75): 0.318 µM (active)
GI50 (SF-295): 0.213 µM (active)
GI50 (U-251): 0.236 µM (active)
GI50 (CCRF-CEM): 0.407 µM (active)
GI50 (HL-60): 0.0785 µM (active)
GI50 (TK-10): > 100 µM (inactive)
GI50 (SW-620): 0.51 µM (active)
GI50 (HT-29): 0.34 µM (active)
GI50 (Malme-3M): > 100 µM (inactive)

CCC12CCCN(Cc3ccccc3)C1c1c(n(C)c3ccccc13)CC2 (centres undefined)
GI50 (SF-295): 117 µM (inactive)
GI50 (CAKI-1): > 253 µM (inactive)
GI50 (U-251): 247 µM (inactive)
GI50 (CCRF-CEM): 168 µM (inactive)
GI50 (HL-60): 106 µM (inactive)
GI50 (RXF 393): 97.3 µM (inactive)
GI50 (OVCAR-3): 60.8 µM (inactive)
GI50 (TK-10): > 253 µM (inactive)
GI50 (SW-620): 178 µM (inactive)
GI50 (HT-29): 167 µM (inactive)
GI50 (SK-MEL-2): > 253 µM (inactive)
GI50 (Malme-3M): > 253 µM (inactive)
GI50 (A549): > 25.3 µM (inactive)

COc1ccc(C(=O)O)c(Cc2cccc3ccccc23)c1
GI50 (SNB-75): > 100 µM (inactive)
GI50 (SF-295): > 100 µM (inactive)
GI50 (CAKI-1): 73.5 µM (inactive)
GI50 (U-251): > 100 µM (inactive)
GI50 (OVCAR-4): > 100 µM (inactive)
GI50 (CCRF-CEM): > 100 µM (inactive)
GI50 (HL-60): > 100 µM (inactive)
GI50 (RXF 393): > 100 µM (inactive)
GI50 (OVCAR-3): 64.3 µM (inactive)
GI50 (TK-10): > 100 µM (inactive)
GI50 (SW-620): > 100 µM (inactive)
GI50 (HT-29): > 100 µM (inactive)
GI50 (SK-MEL-2): > 100 µM (inactive)
GI50 (Malme-3M): > 100 µM (inactive)
GI50 (A549): > 100 µM (inactive)
